Here are results for nine compounds from PubChem BioAssay (NCI).

Holding throughout (assay): NCI tumour cell line growth inhibition, 48 h
The subject of test [1] is ACHN renal.
For test [2], the system named is HS 578T breast.
Test [3] relates to KM12 colon.
Test [4] relates to NCI-H23 lung.
The subject of test [5] is OVCAR-3 ovarian.
Test [6] deals with PC-3 prostate.
Test [7] has as its system SF-295 CNS.
Test [8] has as its system SN12C renal.
The subject of test [9] is SW-620 colon.
Test [10] relates to UACC-62 melanoma.

“And” between values parts separate entries of the source, which are not always exact repeats. Equal values may be shown once.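 Values below derive from 48-hour exposures of cells grown in 96-well plates, with endpoints linearly interpolated between the two concentrations bracketing the appropriate inhibition level. GI50 = concentration required for 50% inhibition of growth. Definition used: TGI = concentration required for complete inhibition of growth.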

Take `CSCC[C@H](NC(=O)[C@H](CC(C)C)NC(=O)[C@@H](Cc1ccccc1)NC(=O)CNC(=O)[C@@H](NC(=O)[C@H](C)NC(=O)[C@H](Cc1c[nH]c2ccccc12)NC(=O)[C@H](CCC(N)=O)NC(=O)[C@H](N)CC(N)=O)C(C)C)C(N)=O`: the TGI in [1], in test [2], in test [3], in test [4], in test [5] and in test [6] was greater than 12.5 µM each time. Also, the TGI in [7], in test [8], in test [9] and in [10] was greater than 12.5 µM each time.
As for `CN(C)CCC=C1c2ccccc2C(C)(C)c2ccccc21`, the GI50 in test [1] was 14.7 µM; in test [2] it was 9.03 µM; in test [3] it was 14.8 µM; in [4], 14 µM; in test [5], 15.2 µM; in [6] it was 10.4 µM. For the same compound, the GI50 in [7] was 3.92 µM; in test [8] it was 15.6 µM; in [9], 13.3 µM; in [10], 11.6 µM. For the same compound, the TGI in test [1] was 27.9 µM; in [2], 29.8 µM; in [3], 28.4 µM; in test [4], 28.9 µM; in test [5], 28.5 µM; in [6], 24.3 µM. The TGI in test [7] was 19.7 µM; in test [8], 34 µM; in test [9], 26.2 µM; in test [10] it was 27 µM.
With `O=c1c2cccc(F)c2sc2c(N3CCNCC3)nc3ccccc3c12`, the GI50 in test [1] is 1.19 µM; in [2], 1.62 µM; in [3], 1.65 µM; in [4], 1.57 µM; in test [5], 1.59 µM; in test [6], 1.26 µM. Moreover, the GI50 was 1.76 µM in test [7], 1.32 µM in test [8], 0.974 µM in test [9] and 1.66 µM in test [10]. The TGI in test [1] is 2.43 µM; in test [2], 3.66 µM; in test [3], 3.17 µM; in test [4], 3.1 µM; in [5], 3.04 µM; in test [6], 2.7 µM. Further, the TGI in test [7] amounted to 3.33 µM; in test [8], 2.72 µM; in test [9], 2.28 µM; in [10] it was 3.16 µM.
Consider `COC(C(=O)C(O)C(C)O)C1Cc2cc3cc(OC4CC(OC5CC(O)C(O)C(C)O5)C(O)C(C)O4)c(C)c(O)c3c(O)c2C(=O)C1OC1CC(OC2CC(O)C(OC3CC(C)(O)C(O)C(C)O3)C(C)O2)C(O)C(C)O1` (stereo not drawn), for which the GI50 in test [1] was 0.0162 µg/mL and 0.0326 µg/mL; in test [2] it was 0.0164 µg/mL; in test [3], 0.0112 µg/mL and 0.000667 µg/mL; in test [4], 0.0112 µg/mL and 0.000748 µg/mL; in test [5], 0.0112 µg/mL and 0.00413 µg/mL; in [6] it was 0.0194 µg/mL and 0.0396 µg/mL. The GI50 is 0.0185 µg/mL and 0.000389 µg/mL in test [7]; 0.0112 µg/mL and 0.0011 µg/mL in test [8]; 0.0121 µg/mL and 0.00236 µg/mL in [9]; 0.0112 µg/mL and 0.00054 µg/mL in [10]. The TGI is 112 µg/mL and > 150 µg/mL in test [1]; 0.134 µg/mL in test [2]; 0.0428 µg/mL and 0.0723 µg/mL in test [3].
In the case of `O=C1C(=O)c2ccccc2C(O)=C1CCCc1ccc(C2CCCC2)cc1`, the GI50 in test [1] is 6.08 µM; in test [2], 20.6 µM; in [3], 5.1 µM; in [4], 5.19 µM; in test [5], 4.91 µM; in test [6], 3.3 µM. Moreover, the GI50 in test [7] is 3.4 µM; in test [8], 6.78 µM; in [9], 4.87 µM; in test [10] it was 3.73 µM. For the same compound, the TGI was found to be 39.6 µM in test [1]; 85.1 µM in [2]; 25.1 µM in [3]; 22.6 µM in [4]; 20.1 µM in test [5]; 19.7 µM in test [6]. Further, the TGI in test [7] came out at 11 µM; in test [8] it was 95 µM; in [9], 17.1 µM; in test [10] it was 18.5 µM.
For `CCCCCc1cc[n+](CC(=O)c2ccc([N+](=O)[O-])cc2)cc1`, the GI50 in test [1] was 11 µM; in test [2] it was 10.2 µM; in test [3], 3.69 µM; in [4], 2.89 µM; in [5], 2.78 µM; in test [6], 4.14 µM. Moreover, the GI50 in test [7] was 6.52 µM; in test [8], 9.63 µM; in test [9] it was 3.22 µM; in test [10] it was 10.8 µM. In addition, the TGI amounted to 45.1 µM in test [1]; 36.5 µM in test [2]; 14.1 µM in test [3]; 11.9 µM in [4]; 10.4 µM in [5]; 34.7 µM in test [6]. The TGI in [7] is 24.3 µM; in test [8], greater than 100 µM; in [9], greater than 100 µM; in test [10], 24.1 µM.
As to `c1ccc(CN2CCC3(CC2)SSC2(CCN(Cc4ccccc4)CC2)SS3)cc1`, the TGI in test [1], in test [2], in test [3], in [4], in test [5] and in [6] was greater than 100 µM throughout. Also, the TGI in test [7], in test [8], in [9] and in test [10] was greater than 100 µM each time.
Regarding `Cn1c2ccccc2c(=O)c2c(O)cc3c(c21)CC(C1(C)CO1)O3` (stereo not drawn), the TGI in [1] was 5.73 µM; in test [2], 5.31 µM; in [3], 6.52 µM; in test [4], 4.14 µM; in test [5], 12.9 µM; in [6], 14.2 µM. Further, the TGI in [7] worked out at 39.2 µM; in [8] it was 3.77 µM; in [9], 3.38 µM; in test [10] it was 4.9 µM.
Turning to `COc1cc2oc(-c3ccc(O)cc3O)c(CC=C(C)C)c(=O)c2c(O)c1/C=C/C(C)C`, the TGI in test [1] was 8.12 µM; in test [2], 7.92 µM; in test [3], 7.51 µM; in [4], 8.87 µM; in test [5], 4.94 µM; in [6] it was 8.2 µM. For the same compound, the TGI in [7] was determined as 12.3 µM; in test [8], 3.35 µM; in [9], 6.03 µM; in [10], 10.4 µM.
